Assays:
[1] = molecular target: T1, rat VEGF-R2 kinase domain (Rattus norvegicus, UniProt O08775); assay: VEGF-R2 Screening Assay; format: biochemical; conditions: > means no observed 50% inhibition at the indicated test concentration; ~ means approximately 50% inhibition at that concentration; read-out: IC50 VEGF-R2
T1 construct: amino acids 786-1343 of the rat VEGF-R2 kinase domain; polyhistidine (N)

murine Aurora-A = molecular target: T2, murine Aurora-A (Mus musculus, UniProt P97477); assay: Aurora-A Screening Assay; format: biochemical
T2 construct: replaced with the full length protein encoding the murine Aurora-A; made in house; host or cells: sf9 insect cells
T2 sequence (P97477 1-395): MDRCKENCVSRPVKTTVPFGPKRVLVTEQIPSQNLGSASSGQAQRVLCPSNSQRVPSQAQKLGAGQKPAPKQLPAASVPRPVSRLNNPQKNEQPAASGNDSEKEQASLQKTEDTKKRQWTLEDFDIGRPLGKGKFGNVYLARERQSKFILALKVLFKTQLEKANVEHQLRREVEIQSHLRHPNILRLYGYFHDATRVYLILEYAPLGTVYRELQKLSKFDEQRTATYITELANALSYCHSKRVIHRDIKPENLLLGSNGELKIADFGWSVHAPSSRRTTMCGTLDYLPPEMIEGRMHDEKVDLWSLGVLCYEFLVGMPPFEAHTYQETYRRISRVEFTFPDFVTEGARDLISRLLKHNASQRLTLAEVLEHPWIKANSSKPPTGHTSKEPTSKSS

HCT-116 colon carcinoma = assay: Inhibition of in vitro cell proliferation (HCT116); format: cell-based, human; conditions: Homo sapiens, HCT-116, 14C-thymidine incorporation;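 note: cells exposed to compound for 24 h, then 14C-thymidine added for a further 24 h and its uptake into DNA counted by scintillation, DMSO-only wells as control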
HER2 cytoplasmic domain = molecular target: T3, HER2 cytoplasmic domain (Homo sapiens, UniProt P04626); assay: HER2 Kinase Screening Assay; format: biochemical; conditions: > means no observed 50% inhibition at the indicated test concentration; ~ means approximately 50% inhibition at that concentration
T3 construct: polyhistidine (N)
T3 sequence (P04626 676-1255 limits assumed): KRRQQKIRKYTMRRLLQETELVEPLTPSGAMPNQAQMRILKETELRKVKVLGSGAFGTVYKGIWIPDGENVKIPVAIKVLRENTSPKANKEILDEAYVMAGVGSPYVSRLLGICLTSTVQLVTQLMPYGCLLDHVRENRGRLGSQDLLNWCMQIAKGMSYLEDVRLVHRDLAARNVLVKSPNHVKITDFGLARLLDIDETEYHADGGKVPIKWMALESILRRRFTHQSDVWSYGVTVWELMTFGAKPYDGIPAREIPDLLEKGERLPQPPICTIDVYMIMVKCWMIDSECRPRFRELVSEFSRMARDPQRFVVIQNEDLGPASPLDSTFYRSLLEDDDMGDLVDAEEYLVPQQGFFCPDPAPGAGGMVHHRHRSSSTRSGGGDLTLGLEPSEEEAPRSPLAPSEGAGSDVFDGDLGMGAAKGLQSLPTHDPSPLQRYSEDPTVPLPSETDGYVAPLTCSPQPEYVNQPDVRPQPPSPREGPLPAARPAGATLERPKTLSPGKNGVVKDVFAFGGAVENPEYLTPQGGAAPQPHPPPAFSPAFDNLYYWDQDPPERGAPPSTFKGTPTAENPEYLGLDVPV

CDK1:Cyclin-B = molecular target: T4, CDK1:Cyclin-B (Homo sapiens, UniProt P06493); assay: CDK1 Screening Assay; format: biochemical
T4 construct: purchased New England Biolabs, Beverly, Mass; 6020; host or cells: insect cells
T4 sequence (P06493 whole entry): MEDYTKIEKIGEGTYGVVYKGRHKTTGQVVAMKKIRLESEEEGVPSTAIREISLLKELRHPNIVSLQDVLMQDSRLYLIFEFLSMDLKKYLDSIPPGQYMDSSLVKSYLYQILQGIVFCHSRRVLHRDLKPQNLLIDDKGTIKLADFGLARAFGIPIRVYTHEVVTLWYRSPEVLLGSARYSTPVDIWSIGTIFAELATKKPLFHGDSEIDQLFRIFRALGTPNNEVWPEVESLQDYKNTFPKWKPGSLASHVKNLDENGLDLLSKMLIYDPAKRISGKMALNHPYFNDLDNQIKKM
T4 sequence (P14635 whole entry partner): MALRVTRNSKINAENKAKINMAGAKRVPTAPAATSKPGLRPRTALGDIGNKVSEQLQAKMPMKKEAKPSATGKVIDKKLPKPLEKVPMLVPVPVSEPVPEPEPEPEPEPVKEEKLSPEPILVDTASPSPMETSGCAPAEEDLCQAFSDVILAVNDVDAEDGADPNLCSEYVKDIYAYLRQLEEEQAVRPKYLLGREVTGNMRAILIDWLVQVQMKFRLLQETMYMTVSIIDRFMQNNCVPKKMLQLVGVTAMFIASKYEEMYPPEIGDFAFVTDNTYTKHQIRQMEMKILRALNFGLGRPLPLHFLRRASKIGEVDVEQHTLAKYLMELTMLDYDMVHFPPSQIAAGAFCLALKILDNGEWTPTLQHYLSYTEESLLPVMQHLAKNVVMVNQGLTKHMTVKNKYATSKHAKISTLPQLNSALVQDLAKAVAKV

[2] = system: HeLa cervical adenocarcinoma; assay: Inhibition of in vitro cell proliferation (HeLa); format: cell-based, human; conditions: Homo sapiens, 14C-thymidine incorporation;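 note: cells exposed to compound for 24 h, then labelled 24 h with methyl 14C-thymidine, with uptake into DNA counted by scintillation against DMSO-only control wells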
A375 malignant melanoma = assay: Inhibition of in vitro cell proliferation (A375); format: cell-based, human; conditions: Homo sapiens, A-375, 14C-thymidine incorporation;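 note: cells plated for 24 h, given compound for 24 h, then labelled with 14C-thymidine for another 24 h, with DMSO-only wells as control and counts read by scintillation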

T1 sequence (O08775 786-1343): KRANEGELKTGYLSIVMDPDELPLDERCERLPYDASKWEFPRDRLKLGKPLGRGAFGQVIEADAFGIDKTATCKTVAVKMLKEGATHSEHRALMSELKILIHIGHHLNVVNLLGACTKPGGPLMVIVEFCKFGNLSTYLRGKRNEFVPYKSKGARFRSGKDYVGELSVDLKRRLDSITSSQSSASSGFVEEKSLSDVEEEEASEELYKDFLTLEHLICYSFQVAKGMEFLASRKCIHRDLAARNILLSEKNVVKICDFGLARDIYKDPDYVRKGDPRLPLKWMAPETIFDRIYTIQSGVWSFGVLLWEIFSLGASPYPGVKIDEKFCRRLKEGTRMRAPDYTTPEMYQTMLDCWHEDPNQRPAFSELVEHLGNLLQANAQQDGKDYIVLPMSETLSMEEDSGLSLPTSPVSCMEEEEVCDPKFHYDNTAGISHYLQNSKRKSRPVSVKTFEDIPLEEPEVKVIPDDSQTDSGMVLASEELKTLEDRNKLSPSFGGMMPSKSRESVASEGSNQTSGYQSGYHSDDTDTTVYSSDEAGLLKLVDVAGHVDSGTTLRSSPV

Row | SMILES | IC50 [1] [µM] | IC50 (murine Aurora-A) [µM] | IC50 (HCT-116 colon carcinoma) [µM] | IC50 (HER2 cytoplasmic domain) [µM] | IC50 (CDK1:Cyclin-B) [µM] | IC50 [2] [µM] | IC50 (A375 malignant melanoma) [µM]
1 | CON=Cc1c(N)ncnc1Oc1ccc(NC(=O)Nc2ccc(F)cc2)c(Cl)c1 [Cpd 60, 1-{4-[6-amino-5-(methoxyimino-methyl)-pyrimidin-4-yloxy]-2-chloro-phenyl}-3-(4-fluoro-phenyl)-urea] | 0.0028 | > 10 | > 10 | > 100 | > 100 | > 10 | > 10
2 | CCCNC(=O)n1c(C)cc2cc(Oc3ncnc(N)c3C=NOC)ccc21 [Cpd 48, 5-[6-amino-5-(methoxyimino-methyl)-pyrimidin-4-yloxy]-2-methyl-indole-1-carboxylic acid propylamide] | 0.0076 | > 100 | 1.22 | > 10 | > 100 | 3.37 | 1.15
3 | CON=Cc1c(N)ncnc1Oc1ccc(NC(=O)Nc2ccc(C)cc2)c(Cl)c1 [Cpd 77, 1-{4-[6-amino-5-(methoxyimino-methyl)-pyrimidin-4-yloxy]-2-chloro-phenyl}-3-p-tolyl-urea] | 0.0016 | > 100 | > 100 | > 100 | > 100 | > 100 | > 100
4 | CON=Cc1c(N)ncnc1Oc1ccc(OCc2ccccc2)cc1 [Cpd 110, 4-amino-6-[4-(benzyloxy)phenoxy]-5-pyrimidinecarboxaldehyde O-methyloxime] | ~1 | > 100 | > 100 | 0.555 | > 100 | > 100 | > 100
5 | CON=Cc1c(N)ncnc1Oc1ccc(NC(=O)Nc2ccccc2)c(Cl)c1 [Cpd 54, 1-{4-[6-amino-5-(methoxyimino-methyl)-pyrimidin-4-yloxy]-2-chloro-phenyl}-3-phenyl-urea] | 0.003 | > 100 | > 100 | > 100 | > 100 | > 100 | > 100
6 | CON=Cc1c(N)ncnc1Oc1ccc(NC(=O)Nc2cc(C)on2)c(Cl)c1 [Cpd 93, 1-{4-[6-amino-5-(methoxyimino-methyl)-pyrimidin-4-yloxy]-2-chloro-phenyl}-3-(5-methyl-isoxazol-3-yl)-urea] | 0.002 | > 100 | 3.12 | > 10 | > 100 | 10 | 2.12
7 | C#CCNC(=O)Nc1ccc(Oc2ncnc(N)c2C=NOC)cc1Cl [Cpd 79, 1-{4-[6-amino-5-(methoxyimino-methyl)-pyrimidin-4-yloxy]-2-chloro-phenyl}-3-prop-2-ynyl-urea] | 0.0275 | > 100 | 3.72 | > 100 | > 100 | 3.58 | 2.2
8 | CON=Cc1c(N)ncnc1Oc1ccc(NC(=O)NCc2ccc(F)cc2F)c(Cl)c1 [Cpd 78, 1-{4-[6-amino-5-(methoxyimino-methyl)-pyrimidin-4-yloxy]-2-chloro-phenyl}-3-(2,4-difluoro-benzyl)-urea] | 0.0103 | > 100 | > 100 | > 100 | > 100 | > 100 | > 100
9 | Cc1cc2c(F)c(Oc3ncnc(N)c3C=NOCC3CC3)ccc2[nH]1 [Cpd 32, 4-amino-6-(4-fluoro-2-methyl-1H-indol-5-yloxy)-pyrimidine-5-carbaldehyde O-cyclopropylmethyl-oxime] | 0.046 | > 100 | 0.333 | > 100 | > 100 | 0.324 | 0.07
10 | CON=Cc1c(N)ncnc1Oc1ccc(NC(=O)Nc2nccs2)c(Cl)c1 [Cpd 91, 1-{4-[6-amino-5-(methoxyimino-methyl)-pyrimidin-4-yloxy]-2-chloro-phenyl}-3-thiazol-2-yl-urea] | 0.0034 | > 10 | 3.04 | > 1 | > 100 | 3.24 | 0.929
